Test results reported in ChEMBL document CHEMBL4184189, “Discovery of orally efficacious RORγt inverse agonists, part 1: Identification of novel phenylglycinamides as lead scaffolds” (Bioorg Med Chem, 2018).

Assays:
[1] = biological target: T1, Nuclear receptor ROR-gamma (Homo sapiens, UniProt P51449); assay: Displacement of BODIPY-cholesterol from human His-tagged RORgammat after 20 mins by TR-FRET assay
T1 sequence (P51449 whole entry): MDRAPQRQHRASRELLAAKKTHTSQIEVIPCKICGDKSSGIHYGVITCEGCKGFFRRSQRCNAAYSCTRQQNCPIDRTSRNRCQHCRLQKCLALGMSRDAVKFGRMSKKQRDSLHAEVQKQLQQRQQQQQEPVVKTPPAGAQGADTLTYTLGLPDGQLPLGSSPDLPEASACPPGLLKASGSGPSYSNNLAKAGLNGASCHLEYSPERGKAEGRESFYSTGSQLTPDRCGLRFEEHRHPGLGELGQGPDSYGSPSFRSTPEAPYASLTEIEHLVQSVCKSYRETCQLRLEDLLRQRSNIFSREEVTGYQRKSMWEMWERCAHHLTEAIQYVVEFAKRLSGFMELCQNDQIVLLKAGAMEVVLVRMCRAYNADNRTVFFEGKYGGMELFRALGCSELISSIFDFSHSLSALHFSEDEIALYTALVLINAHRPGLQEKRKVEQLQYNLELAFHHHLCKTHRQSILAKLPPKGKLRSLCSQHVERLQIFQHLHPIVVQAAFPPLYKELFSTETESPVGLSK

[2] = biological target: T1, Nuclear receptor ROR-gamma; assay: Inverse agonist activity at RORgammat in human Jurkat cells assessed as inhibition of transcriptional activity after overnight incubation by human IL-17 ROR response element driven-bright-glo luciferase reporter gene assay; assay type: cell-based
[3] = (§1) AUC (0 to 8 hrs) in mouse at 1 mg/kg, po administered as cassette dose; assay type: ADME, organism-based; design: time < 8 hr, dose 1 mg/kg, route oral; settings: in vivo
[4] = species: Homo sapiens; assay: Selectivity ratio of IC50 for RORalpha in human Jurkat cells to IC50 for RORgammat in human Jurkat cells; assay type: cell-based
[5] = species: Homo sapiens; assay: Selectivity ratio of IC50 for RORbeta in human Jurkat cells to IC50 for RORgammat in human Jurkat cells; assay type: cell-based
[6] = biological target: T2, Nuclear receptor ROR-gamma (Homo sapiens) (UniProt P51449); assay: Displacement of 25-[3H2]hydroxycholesterol from GST-tagged RORgammat (unknown origin) at 10 uM
T2 sequence (whole entry): T1 sequence (P51449 whole entry)

[7] = Drug uptake in po dosed Balb/c mouse ear; assay type: ADME, organism-based; settings: in vivo
[8] = AUC (0 to 24 hrs) in mouse plasma at 100 mg/kg, po; assay type: ADME, organism-based; design: dose 100 mg/kg, time < 24 hr, route oral
[9] = Drug uptake in po dosed Balb/c mouse ear after 8 hrs; assay type: ADME, organism-based; settings: in vivo
[10] = test system: Mus musculus; assay: In vivo inverse agonist activity at RORgammat in Balb/c mouse assessed as inhibition of IL-23-induced IL-17a gene expression at 100 mg/kg, po administered 30 mins before and 8 hrs after IL-23 injection in ears intradermally measured after 24 hrs by qRT-PCR analysis relative to control; assay type: functional
[11] = Drug uptake in Balb/c mouse plasma at 10 to 100 mg/kg, po; assay type: ADME, organism-based; settings: in vivo
[12] = Cmax in mouse plasma at 100 mg/kg, po; assay type: ADME, organism-based; design: dose 100 mg/kg, route oral
[13] = Tmax in mouse plasma at 100 mg/kg, po; assay type: ADME, organism-based
[14] = test system: Mus musculus; assay: as §1; assay type: ADME, organism-based; design: time < 8 hr, dose 1 mg/kg, route oral; settings: in vivo, 8 h

COc1ccc(CC(C(=O)Nc2ccc(C(C)(C)C)cc2)N(C)C(=O)c2ccc(=O)[nH]c2)cc1 (racemic) gave an IC50 [1] greater than 10 µM and an IC50 [2] greater than 30 µM.
In the case of COc1ccc(C(C(=O)N(C)c2ccc(C(C)(C)C)cc2)N(C)C(=O)c2ccc(=O)[nH]c2)cc1 (racemic), the IC50 [1] is reported as greater than 10 µM and the IC50 [2] is reported as greater than 30 µM.
For COc1ccc(C(C(=O)Nc2cc(F)c([Si](C)(C)C)c(F)c2)N(C)C(=O)c2cc(O)no2)cc1 (racemic), the AUC(0-t) at 8 h [3] was 1510 ng·h/mL.
In the case of COc1ccc(C(CC(=O)Nc2ccc(C(C)(C)C)cc2)N(C)C(=O)c2ccc(=O)[nH]c2)cc1 (racemic), the IC50 [1] is reported as greater than 10 µM and the IC50 [2] is reported as greater than 30 µM.
In the case of COc1ccc(C(C(=O)Nc2ccc(C(C)C)cc2)N(C)C(=O)c2ccc(O)nc2)cc1 (racemic), the Ratio IC50 [4] is reported as greater than 15, the Ratio IC50 [5] is reported as greater than 15 and the inhibition [6] is reported as 93%. For the same molecule, the IC50 [1] was 0.2 µM and the IC50 [2] was 1.6 µM.
For COc1ccc(C(C(=O)Nc2ccc([Si](C)(C)C)cc2)N(C)C(=O)c2ccc(O)nc2)cc1 (racemic), the AUC(0-t) at 8 h [3] was 86 ng·h/mL.
Work on COc1ccc(C(C(=O)Nc2ccc([Si](C)(C)C)cc2)N(C)C(=O)c2cc(O)no2)cc1 (racemic) yielded an AUC(0-t) at 8 h [3] of 1590 ng·h/mL.
With COc1ccc([C@H](C(=O)Nc2cc(F)c([Si](C)(C)C)c(F)c2)N(C)C(=O)c2cc(O)no2)cc1 the Drug uptake [7] was “Dose-dependent effect and Tde”, the AUC(0-t) at 24 h [8] was 47400 ng·h/mL and the Drug uptake [9] was “Active”. The inhibition in vivo at 100 mg/kg [10] was 71%, the Drug uptake [11] was “Active” and the Cmax [12] was 9120 ng/mL. It also gave a Tmax [13] of 1 h and an AUC [14] of 0.37 µg·h/mL.
